One assay addresses T1, trypsin (Bos taurus, UniProt P00760).
T1 construct: Purified trypsin from bovine pancreas; from tissue; host or cells: bovine pancreas
T1 sequence (P00760 24-246): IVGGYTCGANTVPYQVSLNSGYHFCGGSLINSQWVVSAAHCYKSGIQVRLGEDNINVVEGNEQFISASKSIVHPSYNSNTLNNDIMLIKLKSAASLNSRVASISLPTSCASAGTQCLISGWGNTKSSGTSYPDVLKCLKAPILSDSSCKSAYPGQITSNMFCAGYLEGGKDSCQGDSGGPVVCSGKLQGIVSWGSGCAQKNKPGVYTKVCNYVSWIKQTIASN
Kind of assay: Selectivity against various proteases: trypsin (TRY). Type of assay: biochemical, bovine.

The target in another assay is T2, thrombin (Homo sapiens, UniProt P00734).
T2 construct: Purified thrombin from human plasma; from tissue; host or cells: human plasma
As to the kind of experiment: Selectivity against various proteases: thrombin (THR). The format is biochemical. Particulars: human plasma, pH 8.6, 22° C., 10 minute preincubation. The method, then: TRY = trypsin, THR = thrombin, PLM = plasmin, CTC = cathepsin C, APM =
Enzyme: Purified thrombin from human plasma
Substrate: Tosyl-glycyl-L-prolyl-L-arginine-p-NA acetate
50 mM Tricine-NaOH buffer (PH 8.6)
(§1) Except for Cathepsin D, the enzyme activities were determined by monitoring the increase in absorbance at 410 nm caused by the hydrolysis of chromogenic substrates. The activity of Cathepsin D was determined by monitoring the absorbance of 5% trichloroacetic acid-soluble material at 280 nm.
(§2) Inhibition of enzymes by the compounds described were determined after a 10 minute preincubation with enzymes in reaction mixtures minus substrate. Reactions were initiated by the addition of substrates. The concentration used for assays were porcine pancreatic elastase at 240 nM and human Cathepsin G at 50 nM. Cathepsin D was used at the concentration that produced approximately 0.15 O.D. increase per 20 min at 280 nm under the standard conditions. All other proteases were assayed at the concentrations that produced approximately 0.1 O.D. change per minute at 410 nm under the standard conditions.

A further assay addresses T3, cathepsin C (Bos taurus, UniProt Q3ZCJ8).
T3 construct: Purified cathepsin C from bovine spleen; from tissue; host or cells: bovine spleen
As to the kind of experiment: Selectivity against various proteases: cathepsin C (CTC). The format is biochemical, bovine.

For a further assay, the target named is T4, aminopeptidase M (Sus scrofa, UniProt P15145).
T4 construct: Purified aminopeptidase M from porcine kidney; from tissue; host or cells: porcine kidney
T4 sequence (P15145 1-963): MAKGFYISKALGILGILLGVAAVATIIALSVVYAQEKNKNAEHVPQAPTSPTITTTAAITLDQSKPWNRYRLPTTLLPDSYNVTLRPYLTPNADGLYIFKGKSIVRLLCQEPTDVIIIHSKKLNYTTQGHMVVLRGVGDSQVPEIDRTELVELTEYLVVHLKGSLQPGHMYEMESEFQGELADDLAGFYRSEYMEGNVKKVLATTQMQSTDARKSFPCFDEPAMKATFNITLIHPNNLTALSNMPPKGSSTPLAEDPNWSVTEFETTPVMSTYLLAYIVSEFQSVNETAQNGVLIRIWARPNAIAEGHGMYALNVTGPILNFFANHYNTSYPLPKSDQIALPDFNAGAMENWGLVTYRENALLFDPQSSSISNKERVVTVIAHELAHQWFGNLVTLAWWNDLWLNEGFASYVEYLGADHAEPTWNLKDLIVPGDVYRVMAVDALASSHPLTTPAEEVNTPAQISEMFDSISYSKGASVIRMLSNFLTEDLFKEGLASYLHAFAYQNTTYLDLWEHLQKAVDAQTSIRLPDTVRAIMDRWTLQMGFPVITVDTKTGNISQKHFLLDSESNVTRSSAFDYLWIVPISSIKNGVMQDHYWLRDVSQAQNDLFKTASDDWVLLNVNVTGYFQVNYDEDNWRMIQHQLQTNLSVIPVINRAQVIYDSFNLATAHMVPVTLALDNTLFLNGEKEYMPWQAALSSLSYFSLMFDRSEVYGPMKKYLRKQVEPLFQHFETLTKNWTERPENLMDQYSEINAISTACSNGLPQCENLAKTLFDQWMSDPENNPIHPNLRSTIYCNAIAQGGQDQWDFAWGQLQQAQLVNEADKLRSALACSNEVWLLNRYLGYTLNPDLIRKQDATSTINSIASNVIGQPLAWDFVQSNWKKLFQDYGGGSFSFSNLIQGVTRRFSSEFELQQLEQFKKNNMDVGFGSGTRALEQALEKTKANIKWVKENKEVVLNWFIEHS
As to the kind of experiment: Selectivity against various proteases: aminopeptidase M (APM). The format is biochemical, porcine.

The target of another assay is T5, cathepsin G (Homo sapiens, UniProt P08311).
T5 construct: Purified Cathepsin G from human white blood cells; from tissue; host or cells: human white blood cells
T5 sequence (P08311 21-244 limits assumed): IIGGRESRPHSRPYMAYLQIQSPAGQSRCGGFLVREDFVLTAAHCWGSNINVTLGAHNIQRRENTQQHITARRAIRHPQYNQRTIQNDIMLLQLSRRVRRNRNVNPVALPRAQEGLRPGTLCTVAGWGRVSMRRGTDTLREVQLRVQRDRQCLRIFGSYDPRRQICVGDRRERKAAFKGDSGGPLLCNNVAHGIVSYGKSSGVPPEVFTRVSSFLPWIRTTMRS
Kind of assay: Selectivity against various proteases: cathepsin G (CTG). The format is biochemical. Particulars: cathepsin G 50 nM, human white blood cells, pH 7.5, 30° C., 10 minute preincubation. On the procedure:
as §2, with “Reaction mixture: […] 500 mM NaCl […] 2.0 mM Substrate Except for Cathepsin D, the enzyme activities were determined by monitoring the increase in absorbance at 410 nm caused by the hydrolysis of chromogenic substrates. The activity of Cathepsin D was determined by monitoring the absorbance of 5% trichloroacetic acid-soluble material at 280 nm. Inhibition” for “Inhibition”

The next assay has as its target T6, cathepsin D (Bos taurus, UniProt P80209).
T6 construct: Purified cathepsin D from bovine spleen; from tissue; host or cells: bovine spleen
As to the kind of experiment: Selectivity against various proteases: cathepsin D (CTD). Type of assay: biochemical, bovine.

The target of assay [1] is T7, human leukocyte elastase (HLE) (Homo sapiens, UniProt P08246).
T7 construct: Purified elastase from human white blood cells; from tissue; host or cells: human white blood cells
T7 sequence (P08246 30-247 limits assumed): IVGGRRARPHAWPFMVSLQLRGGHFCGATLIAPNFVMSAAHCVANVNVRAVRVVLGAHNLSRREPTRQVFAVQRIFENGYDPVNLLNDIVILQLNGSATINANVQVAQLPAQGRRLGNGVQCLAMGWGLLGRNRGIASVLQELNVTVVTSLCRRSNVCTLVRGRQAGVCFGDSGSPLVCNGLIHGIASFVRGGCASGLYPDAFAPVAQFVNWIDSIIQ
Kind of assay: Enzyme assay for inhibition of HLE (Table I, activity against ILE). The format is biochemical. Particulars: HLE 10 nM, 10 minute preincubation, pH 7.6, 30° C. On the procedure:
Enzyme Assay for Inhibition of HLE
Enzyme: Purified elastase from human white blood cells.
MeO-succinyl-L-alanyl-L-alanyl-L-propyl-L-valine-p-nitroanilide (NA)
10 mM phosphate buffer (pH 7.6)
10% dimethylsulfoxide (DMSO)
The enzyme activity was determined by monitoring the increase in absorbance at […] caused by the hydrolysis of chromogenic substrates. Inhibition of enzyme by the compounds described were determined after a 10 minute preincubation with the enzyme in reaction mixture minus substrate. Reaction was initiated by the addition of substrate. The concentration of human leukocyte elastase used for assay was at 10 nM.
HLE, CTG, PPE, and CTD were tested at 30° C. and the others were […]

Assay [2] deals with T8, porcine pancreatic elastase (Sus scrofa, UniProt P00772).
T8 construct: Purified elastase from porcine pancreas; from tissue; host or cells: porcine pancreas
As to the kind of experiment: Selectivity against various proteases: porcine pancreatic elastase (PPE). The format is biochemical. The method, then: Porcine Pancreatic Elastase (PPE)
Enzyme: Purified elastase from porcine pancreas
Substrate: MeO-succinyl-L-alanyl-L-alanyl-L-prolyl-L-valine-pNA
50 mM Tris[Tris(hydroxymethyl) aminomethane]. HCl buffer (pH 8.9)
as §1
Inhibition of enzymes by the compounds described were determined after a 10 minute preincubation with enzymes in reaction mixtures minus substrate. Reactions were initiated by the addition of substrates. […] Cathepsin D was used at the concentration that produced approximately 0.15 O.D. increase per 20 min at 280 nm under the standard conditions. All other proteases were assayed at the concentrations that produced approximately 0.1 O.D. change per minute at 410 nm under the standard conditions.

Setting [3] is: trypsin, bovine pancreas, pH 8.8, 22° C., 10 minute preincubation, read-out: TRY IC50 (converted).
[4] abbreviates: cathepsin C, bovine spleen, pH 5.4, 22° C., 10 minute preincubation, read-out: CTC IC50 (converted).
The mark [5] stands for this setting: aminopeptidase M, porcine kidney, pH 7.5, 22° C., 10 minute preincubation, read-out: APM IC50 (converted).
Where [6] appears, read: cathepsin D, bovine spleen, pH 3.2, 30° C., 10 minute preincubation, read-out: CTD IC50 (converted).
[7] abbreviates: porcine pancreatic elastase 240 nM, pH 8.9, 30° C., 10 minute preincubation, read-out: PPE IC50 (converted).

Like-named read-outs stand apart in the source and are kept apart here.

A word on the IC50: it is the concentration that gives 50% inhibition.

T8 sequence (P00772 27-266): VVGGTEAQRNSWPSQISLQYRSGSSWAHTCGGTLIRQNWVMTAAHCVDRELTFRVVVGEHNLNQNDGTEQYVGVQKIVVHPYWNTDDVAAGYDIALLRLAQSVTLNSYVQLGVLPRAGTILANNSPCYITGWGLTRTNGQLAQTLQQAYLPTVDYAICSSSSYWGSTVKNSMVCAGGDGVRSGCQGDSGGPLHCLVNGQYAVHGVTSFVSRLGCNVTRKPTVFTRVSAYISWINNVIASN
T6 sequence (P80209 45-390): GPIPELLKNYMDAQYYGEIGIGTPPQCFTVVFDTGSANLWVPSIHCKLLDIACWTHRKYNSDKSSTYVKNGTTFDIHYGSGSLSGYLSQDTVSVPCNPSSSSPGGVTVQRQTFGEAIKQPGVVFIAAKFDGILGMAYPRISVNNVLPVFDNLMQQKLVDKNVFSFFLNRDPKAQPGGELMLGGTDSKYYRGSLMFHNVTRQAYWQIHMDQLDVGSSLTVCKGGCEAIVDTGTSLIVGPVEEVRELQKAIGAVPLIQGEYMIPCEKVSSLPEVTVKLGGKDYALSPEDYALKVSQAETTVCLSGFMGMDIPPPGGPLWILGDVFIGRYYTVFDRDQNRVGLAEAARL
T3 sequence (Q3ZCJ8 231-394 limits assumed): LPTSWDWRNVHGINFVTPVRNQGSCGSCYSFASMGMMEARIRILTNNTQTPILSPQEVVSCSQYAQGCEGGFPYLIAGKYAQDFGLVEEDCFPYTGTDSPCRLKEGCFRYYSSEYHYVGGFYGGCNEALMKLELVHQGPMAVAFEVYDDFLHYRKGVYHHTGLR
T3 sequence (Q3ZCJ8 395-463 limits assumed): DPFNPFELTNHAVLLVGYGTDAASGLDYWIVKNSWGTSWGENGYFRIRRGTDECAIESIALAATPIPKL
T3 sequence (Q3ZCJ8 25-134 limits assumed): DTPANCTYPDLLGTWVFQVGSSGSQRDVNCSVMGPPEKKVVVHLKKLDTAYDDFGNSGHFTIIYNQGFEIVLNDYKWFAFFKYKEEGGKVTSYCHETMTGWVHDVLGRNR
Method for aminopeptidase M: Enzyme: Purified aminopeptidase M from porcine kidney
50 mM Tricine buffer (pH 7.5)
Method for cathepsin C: Enzyme: Purified cathepsin C from bovine spleen
Substrate: Glycyl-L-phenylalanine-pNA
50 mM Citrate buffer (pH 5.4)
Inhibition of enzymes by the compounds described were determined after a 10 minute preincubation with enzymes in reaction mixtures minus substrate. Reactions were initiated by the addition of substrates. […] All other proteases were assayed at the concentrations that produced approximately 0.1 O.D. change per minute at 410 nm under the standard conditions.
Method for cathepsin D: Enzyme: Purified cathepsin D from bovine spleen
Substrate: Hemoglobin (bovine)
250 mM Glycine buffer (pH 3.2)
Method for trypsin: Enzyme: Purified trypsin from bovine pancreas
Substrate: Bz-L-arginine-p-NA
50 mM Tricine[N-Tris(hydroxymethyl)methylglycine]-NaOH buffer (pH 8.8) 150 mM NaCl

For `CC1=C(C(=O)OC(c2ccccc2)c2ccccc2)N2C(=O)[C@H](Cl)[C@H]2S(=O)(=O)C12CC2(c1ccccc1)c1ccccc1` (single isomer, unassigned) [Example 1, Benzhydryl 7α-chloro-2-spiro(2',2'-diphenyl) cyclopropyl-3-methyl-3-cephem-4-carboxylate-1,1-dioxide], the IC50 is 60 µM at trypsin (setting [3]); 40 µM against thrombin; 60 µM on cathepsin C (setting [4]); 60 µM on aminopeptidase M (setting [5]); 20 µM at cathepsin G; 17.2 µM on cathepsin D (setting [6]).
In the case of `CC1=C(C(=O)OC(c2ccccc2)c2ccccc2)N2C(=O)[C@H](Br)[C@H]2S(=O)(=O)C12CC2(c1ccccc1)c1ccccc1` (single isomer, unassigned) [Example 2, benzhydryl 7α-bromo-2-spiro(2', 2'-diphenyl) cyclopropyl-3-methyl-3-cephem-4-carboxylate-1,1-dioxide], the IC50 is 0.00336 µM in assay [1] and 16.2 µM against cathepsin G.
As for `CO[C@H]1C(=O)N2C(C(=O)OC(c3ccccc3)c3ccccc3)=C(C)C3(CC3(c3ccccc3)c3ccccc3)S(=O)(=O)[C@H]12` (stereo partly drawn) [Example 9, Benzhydryl 7α-methoxy-2-spiro (2',2'-diphenyl) cyclopropyl-3-methyl-3-cephem-4-carboxylate-1,1-dioxide], the IC50 at trypsin is 10 µM; against thrombin it was 10 µM; on cathepsin C, 10 µM; at aminopeptidase M, 10 µM; on cathepsin D it was 10 µM; in assay [2] (setting [7]), 0.0578 µM.
On to `CO[C@H]1C(=O)N2C(C(=O)N3CCCC3)=C(C)C3(CC3(c3ccccc3)c3ccccc3)S(=O)(=O)[C@H]12` (stereo partly drawn) [Example 10, 7-α-Methoxy-2-spiro (2',2'-diphenyl)cyclopropyl-3-methyl-3-cephem-4-pyrrolidine carboxamide-1,1-dioxide], for which the IC50 against trypsin is 40 µM; at thrombin, 40 µM; at cathepsin C (setting [4]), 9.99 µM; on aminopeptidase M, 40 µM; against cathepsin G, 30.9 µM; on cathepsin D (setting [6]), 9.99 µM. For the same compound, the IC50 in assay [2] (setting [7]) was 0.0954 µM.
On to `CO[C@H]1C(=O)N2C(C(=O)N3CCCCC3)=C(C)C3(CC3(c3ccccc3)c3ccccc3)S(=O)(=O)[C@H]12` (stereo partly drawn) [Example 11, 7α-Methoxy-2-spiro (2',2'-diphenyl)cyclopropyl-3-methyl-3-cephem-4-piperidine carboxamide-1,1-dioxide], for which the IC50 at trypsin (setting [3]) was 10 µM; on thrombin, 39.9 µM; on cathepsin C (setting [4]), 10 µM; on aminopeptidase M (setting [5]), 10 µM; on cathepsin D (setting [6]), 10 µM; in assay [2], 0.0316 µM.

The record behind these values is patent publication US5264430A, “2-spirocyclopropyl cephalosporin sulfone derivatives” (SynPhar Laboratories, Inc., priority 1991, dated 1993).
